Tests used:
[1] = tested on: T1, GLF_1777 (2KGR); test: NADH oxidation at […] nm, soluble cell extract of overexpressing strain; type: biochemical, Gluconobacter sp. CHM43; details: co-substrate 2KG; standard assay 10 mM K-2-ketogluconate, 50 mM Na-acetate pH 6.0, 25°C
T1 construct: untagged, full-length gene on plasmid pSKR57 in Gluconobacter sp; CHM43 delta-GLF_0478 (strain SKR104)

[2] = tested on: T1, GLF_1777 (2KGR); test: NADPH oxidation at […] nm, soluble cell extract of overexpressing strain; type: biochemical, Gluconobacter sp. CHM43; details: co-substrate 2KG; standard assay 10 mM K-2-ketogluconate, 50 mM Na-acetate pH 6.0, 25°C

Row | Structure (SMILES) | Km [1] | Km [2]
1 | NC(=O)C1=CN([C@@H]2O[C@H](COP(=O)(O)OP(=O)(O)OC[C@H]3O[C@@H](n4cnc5c(N)ncnc54)[C@H](O)[C@@H]3O)[C@@H](O)[C@H]2O)C=CC1 [NADH] | 100 ± 9 µM | 
2 | NC(=O)C1=CN([C@@H]2O[C@H](COP(=O)(O)OP(=O)(O)OC[C@H]3O[C@@H](n4cnc5c(N)ncnc54)[C@H](OP(=O)(O)O)[C@@H]3O)[C@@H](O)[C@H]2O)C=CC1 [NADPH] |  | 3 ± 0.4 µM

Reference: publication PMC11837542, “Two NADPH-dependent 2-ketogluconate reductases involved in 2-ketogluconate assimilation in Gluconobacter sp. strain CHM43” (Applied and Environmental Microbiology, 2025)
